Results from patent publication EP0580161A1, “Prophylactic and therapeutic treatment of Alzheimer's disease” (THE McLEAN HOSPITAL CORPORATION, priority 1992, dated 1994).
Where two headings read alike, the source gives them in different places. Residues, ends and D or L forms follow the SMILES beside them. *: point of attachment. Cbz = O=C(OCc1ccccc1)*

Tests used:
mouse = settings: cited from earlier work
m-calpain = biological target: T1, m-calpain (Rattus norvegicus, UniProt Q07009); assay: calpain inhibitory activity; assay type: biochemical; settings: m-calpain extracted and purified from rat brain; read-out: calpain inhibitory activity IC₅₀
T1 construct: m-calpain which was extracted and purified from rat brain; from tissue; host or cells: rat brain
T1 sequence (Q07009 20-700 limits assumed): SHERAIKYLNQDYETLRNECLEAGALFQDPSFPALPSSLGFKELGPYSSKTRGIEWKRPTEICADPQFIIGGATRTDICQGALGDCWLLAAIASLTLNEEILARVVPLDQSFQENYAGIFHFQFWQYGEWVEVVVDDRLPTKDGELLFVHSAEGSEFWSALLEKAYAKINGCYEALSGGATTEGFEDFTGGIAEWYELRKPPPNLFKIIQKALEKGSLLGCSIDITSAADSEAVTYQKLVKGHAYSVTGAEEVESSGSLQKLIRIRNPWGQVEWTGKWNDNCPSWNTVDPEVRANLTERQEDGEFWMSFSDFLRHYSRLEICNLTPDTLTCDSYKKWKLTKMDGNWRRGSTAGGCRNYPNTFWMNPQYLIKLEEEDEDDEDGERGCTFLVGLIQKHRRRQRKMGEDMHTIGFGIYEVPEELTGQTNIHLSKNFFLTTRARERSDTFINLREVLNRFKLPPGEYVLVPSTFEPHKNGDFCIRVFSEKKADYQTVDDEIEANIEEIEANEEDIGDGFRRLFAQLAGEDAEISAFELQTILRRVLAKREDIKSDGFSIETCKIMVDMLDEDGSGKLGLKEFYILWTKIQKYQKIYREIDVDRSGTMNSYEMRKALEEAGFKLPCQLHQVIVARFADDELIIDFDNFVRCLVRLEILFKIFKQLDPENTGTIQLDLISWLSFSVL
T1 sequence (Q64537 1-270 partner): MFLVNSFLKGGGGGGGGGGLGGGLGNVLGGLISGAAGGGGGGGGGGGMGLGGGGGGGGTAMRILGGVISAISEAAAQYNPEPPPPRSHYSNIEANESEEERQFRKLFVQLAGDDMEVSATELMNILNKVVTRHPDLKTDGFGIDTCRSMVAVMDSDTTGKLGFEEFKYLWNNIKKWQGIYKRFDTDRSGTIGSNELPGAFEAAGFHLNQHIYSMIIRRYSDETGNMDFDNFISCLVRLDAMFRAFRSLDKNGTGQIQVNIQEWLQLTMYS
Procedure: According to the method previously described (Journal of Biological Chemistry, 259, 12489 (1984)), inhibitory activity of several compounds were determined with m-calpain which was extracted and purified from rat brain by means of the method described in Journal of Biological Chemistry, 259, 3210 (1984). The results are summarized in the following table in which the data for NCO-700 (Arzneimittel Forschung/Drug Research 36, 190 (1986)) and for MDL 28170 (Biochemical and Biophysical Research Communications, 157, 1117 (1988)) are those disclosed in the references.

calpain = settings: cited from earlier work
calpain I = biological target: T2, calpain I (Homo sapiens, UniProt P07384); assay: conversion of 80KDa calpain I to 76KDa form in erythrocyte incubated with calcium; assay type: cell-based; settings: human erythrocyte incubated in the presence of calcium
T2 construct: endogenous in cells; host or cells: human erythrocyte
T2 sequence (P07384 1-714): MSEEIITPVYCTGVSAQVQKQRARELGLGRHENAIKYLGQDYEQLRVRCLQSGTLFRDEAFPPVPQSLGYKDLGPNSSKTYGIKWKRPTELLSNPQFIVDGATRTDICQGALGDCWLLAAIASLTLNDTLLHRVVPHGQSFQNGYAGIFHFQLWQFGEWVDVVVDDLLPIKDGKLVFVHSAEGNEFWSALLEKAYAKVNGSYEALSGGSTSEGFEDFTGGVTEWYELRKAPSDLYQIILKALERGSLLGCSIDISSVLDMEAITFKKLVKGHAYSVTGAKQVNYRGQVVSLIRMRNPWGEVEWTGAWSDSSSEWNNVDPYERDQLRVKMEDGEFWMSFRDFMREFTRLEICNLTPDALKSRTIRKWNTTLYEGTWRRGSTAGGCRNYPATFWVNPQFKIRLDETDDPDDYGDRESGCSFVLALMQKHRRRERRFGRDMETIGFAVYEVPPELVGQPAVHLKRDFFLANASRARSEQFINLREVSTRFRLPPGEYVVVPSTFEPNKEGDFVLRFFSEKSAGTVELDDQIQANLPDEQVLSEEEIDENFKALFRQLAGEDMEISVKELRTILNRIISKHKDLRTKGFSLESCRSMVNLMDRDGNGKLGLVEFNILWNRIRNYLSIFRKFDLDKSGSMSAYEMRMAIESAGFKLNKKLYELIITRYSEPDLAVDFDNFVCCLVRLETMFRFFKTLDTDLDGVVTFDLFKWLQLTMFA
T2 sequence (P04632 1-268 partner): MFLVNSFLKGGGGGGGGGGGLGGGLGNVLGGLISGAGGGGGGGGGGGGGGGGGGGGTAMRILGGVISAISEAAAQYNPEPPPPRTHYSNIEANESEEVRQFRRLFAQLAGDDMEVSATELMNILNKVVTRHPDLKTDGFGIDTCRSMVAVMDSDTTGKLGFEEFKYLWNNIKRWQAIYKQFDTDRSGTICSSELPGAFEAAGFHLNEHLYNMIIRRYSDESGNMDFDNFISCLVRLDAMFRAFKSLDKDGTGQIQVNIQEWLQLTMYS
Source text: Calpain I is partially purified from post-mortem brain. Fraction containing crude calpain I is subjected to electrophoresis, and reacted with monoclonal antibody to human calpain I (Biochemical Journal, 246, 481 (1987); Biochemical Journal, 261, 1039 (1989)) to show three bands. Molecular weights of these bands are 80KDa, 78KDa, and 76KDa, respectively, and are identical to those in erythrocyte (Biochemical Journal, 246, 482 (1987); Biochemical Journal, 261, 1039 (1989)). When human erythrocyte is incubated in the presence of calcium, the 80KDa band disappears and the 76KDa band appears. This reaction is inhibited by leupeptine which is a calpain inhibitor. Furthermore, there exists a good correlation between the amount of the 76KDa protein and the enzyme activity. […] This transformation from 80KDa to 76KDa in the presence of calcium can also be observed with slice specimens of post-mortem human brain.

Row | SMILES | LD₅₀ (mouse; po) [mg/kg] | IC50 (m-calpain) [nM] | other results
1 | CC(C)CCNC(=O)[C@H](CC(C)C)NC(=O)[C@H]1O[C@@H]1C(=O)O [E-64-c] | > 2000 |  | 
2 | CCOC(=O)[C@H]1O[C@@H]1C(=O)N[C@@H](CC(C)C)C(=O)NCCC(C)C [E-64-d] | > 2000 |  | 
3 | CC(C)CC(NC(=O)[C@H]1O[C@@H]1C(=O)O)C(=O)NCCCCNC(=N)N (some centres unmarked) [E-64] | > 2000 | 960 | 
4 | CC(C)[C@H](NC(=O)OCc1ccccc1)C(=O)N[C@H](C=O)Cc1ccccc1 [MDL 28170] (Cbz-Val-Phe-aldehyde) |  |  | Ki (calpain; value disclosed in Biochemical and Biophysical Research Communications, 157, 1117 (1988), read-out: calpain inhibitory activity Ki): 7 nM
5 | CCOC(=O)[C@@H]1O[C@H]1C(=O)NC(CC(C)C)C(=O)N1CCN(Cc2ccc(OC)c(OC)c2OC)CC1.CCOC(=O)[C@@H]1O[C@H]1C(=O)NC(CC(C)C)C(=O)N1CCN(Cc2ccc(OC)c(OC)c2OC)CC1.O=S(=O)(O)O (some centres unmarked) [NCO-700] |  |  | IC50 (calpain; value disclosed in Arzneimittel Forschung/Drug Research 36, 190 (1986), read-out: calpain inhibitory activity IC₅₀): 46000 nM; LD₅₀ (mouse; iv): 374 mg/kg
6 | CCCCC(C=O)NC(=O)C(CC(C)C)NC(=O)OCc1ccccc1 (centres unmarked) [carpeptine] |  | 46 | 
7 | NC(N)=NCCCCNC(=O)[C@H](Cc1ccccc1)NC(=O)C1OC1C(=O)O (some centres unmarked) [estatine A] |  |  | LD₅₀ (mouse; ip): > 400 mg/kg
8 | CC(=O)NC(CC(C)C)C(=O)NC(CC(C)C)C(=O)NC(C=O)CCCNC(=N)N (centres unmarked) [leupeptine] |  | 360 | disappearance of 80KDa band and appearance of 76KDa band of calpain I (calpain I): inhibited
